Each block holds one compound with its values, some of them ahead of it.
Assays:
Moisture absorption test = assay type: physicochemical; details: 60° C./80% RH, paper bag
Protocol: An anhydrous crystal sample was placed in a container (glass weighing bottle or paper bag) in such a manner that it was in direct contact with the damp. […] In addition, a sample for the hydrate crystal (Production Example 1) was also preserved at 60° C./80% RH, and the change in moisture content was observed through the change in weight or Karl Fischer moisture measurement.

[1] = Karl Fischer moisture content measurement (volumetric titration method); assay type: physicochemical; details: atmosphere of 25° C., as obtained
Protocol: The moisture content rates of the hydrate crystals obtained in Production Examples 1 and 2, and the anhydrous crystals used as a raw material in Production Example 1 were measured with a Karl Fischer moisture meter (CA-310, manufactured by Nittoseiko Analytech Co., Ltd.). The test was conducted in conformance with the description in The Japanese Pharmacopoeia, 18th Edition, “2.48 Water Determination (Karl Fischer Method)”, Volumetric titration. The measurement was performed in an atmosphere of 25° C., with the conditions set to a forced delay time of 2 minutes after sample administration, a minimum amount to be titrated of 2 μL, and an end point voltage of 140 mV. More specifically, it was as follows. First, into a measuring flask, methanol for moisture measurement (Aquamicron Dehydrated Solvent GEX, manufactured by Mitsubishi Chemical Corporation) was loaded, and 30 mg of water was added thereto to titrate the mixture with a Karl Fischer reagent (Aquamicron SS-Z, manufactured by Mitsubishi Chemical Corporation). After titration, a titer (mg/mL) of the reagent was determined from the amount titrated. Next, about 0.1 g of a measurement sample was precisely weighed and added into the measuring flask to titrate the mixture with a Karl Fischer reagent. The moisture content (w/w %) in the sample was calculated from the amount titrated and the previously determined titer.

Drying test = assay type: physicochemical; details: 25° C., dried (silica gel), weighing bottle
Protocol: The hydrate crystal of Production Example 1 was stored at 25° C. under a dried condition (in the presence of silica gel) for a period shown in Table 2. The Karl Fischer moisture content after storage was measured, and the change in moisture content was observed.

[2] = Test of triboelectrification properties; assay type: physicochemical; details: for Decrease of potential retention rate: at 20 minutes later
Protocol: First, the sample was loaded into a levelled stainless steel petri dish having φ50 mm×a height of 15 mm, and then it was statically eliminated with a static eliminator (STABLO AP, manufactured by SHIMADZU CORPORATION). The surface potential of the sample was measured with a surface electrometer (SV-77A, manufactured by NIPPON STATIC CO., LTD.) that had previously been zero-point adjusted, to confirm that it was statically eliminated (within −1 to +1 kV). Next, the sample surface of the petri dish loaded with the sample was scraped back and forth 20 times with a stainless steel metal plate for 10 seconds to charge the sample surface. After that, the petri dish loaded with the charged sample was placed on a metal plate (30 cm×30 cm) connected with a ground wire. The surface potential of the sample was measured over time for 20 minutes with the above surface electrometer. The triboelectrification properties were evaluated from the initial surface potential. In addition, the retention rate was calculated from the surface potential after 20 minutes and the initial surface potential to evaluate charge attenuation properties. Note that the test was conducted in an electrostatic measurement chamber (Tabai ESPEC CORP.) set to 25° C. and 50% RH, and the surface potential measurement was conducted at a distance of 1 cm from the sample surface.

[3] = system: Trichophyton rubrum (ATCCMYA4607); experiment: Antifungal activity test, minimum inhibitory concentration (MIC100); assay type: cell-based; details: Table 21, same method as Test Example 12, read-out: Minimal fungicidal concentration (MFC100)
Protocol: Trichophyton rubrum was cultured on a Sabouraud medium at 32° C. for 168 hours to form spores. Mycelia were peeled from a medium surface and collected into a tube, physiological saline solution (OTSUKA NORMAL SALINE; containing the equivalent of 9 g of sodium chloride in 1000 mL) was added thereto, and the entire mixture was mixed and dispersed with a disposable loop (Type 1 (1 μL)) to collect a spore suspension containing mycelia. The spore suspension containing mycelia was filtered through a cell strainer (+40 μm). Spores were collected from a filtrate by centrifugation (3500 rpm, 5 minutes), and washed twice with physiological saline to prepare a spore suspension (1×10^6 cells/mL). 10 μL of the spore suspension was inoculated into the Sabouraud medium to which the test compound dissolved in DMSO was added so as to have a predetermined concentration. Trichophyton rubrum was cultured at 32° C. for 72 hours, and then the presence or absence of the development of colonies was examined to determine a minimum inhibitory concentration (MIC100).
A minimum inhibitory concentration (MIC100) for Trichophyton rubrum (ATCCMYA4607) was determined in the same method as in Test Example 12 except that the hydrate crystal (Production Example 2) was used as the compound under test.

Moisture content (Moisture absorption test; 0 days): 0.1%
Weight change (Moisture absorption test; 4 days): 6.4%
Weight change (Moisture absorption test; 7 days): 6.4%
Weight change (Moisture absorption test; 14 days): 6.5%
Moisture content (Moisture absorption test; 20 days): 6.7%
Weight change (Moisture absorption test; 20 days): 6.5%
Weight change (Moisture absorption test; 29 days): 6.5%
Weight change (Moisture absorption test; 40 days): 6.5%
Moisture content (Moisture absorption test; 61 days): 6.6%
Weight change (Moisture absorption test; 61 days): 6.5%
Karl Fischer moisture content ([1]; listed as hydrate crystal of Production Example 1): 6.6 wt %
Karl Fischer moisture content (Drying test; 0 days): 6.5%
Karl Fischer moisture content (Drying test; 14 days): 6.7%
Karl Fischer moisture content (Drying test; 29 days): 6.7%
Karl Fischer moisture content (Drying test; 38 days): 6.7%
Karl Fischer moisture content (Drying test; 53 days): 6.7%
Electrification voltage ([2]; 0 minutes after charging, 25° C. and 50% RH): −3.00 kv
Electrification voltage ([2]; 20 minutes after charging, 25° C. and 50% RH): −2.79 kv
Decrease of potential retention rate ([2]; 25° C. and 50% RH, listed as hydrate crystal of Production Example 1): 7%
Retention rate ([2]; surface potential after 20 minutes vs initial, 25° C. and 50% RH): 93.0%
SMILES: Cc1ccc(-c2nc(C#N)[nH]c2Cl)cc1Cl [Hydrate crystal (Production Example 1), 5-chloro-4-(3-chloro-4-methylphenyl)-1H-imidazole-2-carbonitrile]

Karl Fischer moisture content ([1]; listed as hydrate crystal of Production Example 2): 6.7 wt %
Electrification voltage ([2]; 0 minutes after charging; 25° C. and 50% RH; listed as Hydrate crystal Production Example 2)): −2.30 kv
Electrification voltage ([2]; 20 minutes after charging; 25° C. and 50% RH; listed as Hydrate crystal Production Example 2)): −1.98 kv
Decrease of potential retention rate ([2]; 25° C. and 50% RH, listed as hydrate crystal of Production Example 2): 14%
Retention rate ([2]; surface potential after 20 minutes vs initial; 25° C. and 50% RH; listed as Hydrate crystal Production Example 2)): 86.1%
SMILES: Cc1ccc(-c2nc(C#N)[nH]c2Cl)cc1Cl [Hydrate crystal (Production Example 2), 5-chloro-4-(3-chloro-4-methylphenyl)-1H-imidazole-2-carbonitrile]
MFC [3]: 5 mg/L

— patent publication US20250026725A1, “HYDRATE CRYSTAL OF 5-CHLORO-4-(3-CHLORO-4- METHYLPHENYL)-1H-IMIDAZOLE-2-CARBONITRILE” (ISHIHARA SANGYO KAISHA, LTD., priority 2021, published 2025)
